This experiment has as its target T1, NLRP3 (Homo sapiens, UniProt Q96P20).
T1 construct: host or cells: PMA-differentiated THP-1 cells
Briefly: Measurement of IL-1β production in PMA-differentiated THP-1 cells (NLRP3 hIL1B). Format: cell-based. As to the method: Measurement of IL-1β Production in PMA-Differentiated THP-1 Cells
THP-1 cells were purchased from the American Type Culture Collection and sub-cultured according to instructions from the supplier. Prior to experiments, cells were cultured in RPMI 1640 containing 10% heat inactivated FBS, penicillin (100 units/ml) and streptomycin (100 μg/ml), and maintained in log phase prior to experimental setup. Prior to the experiment THP-1 were treated with PMA (Phorbol 12-myristate 13-acetate) (10 μg/ml) for 24 hours. The day of the experiment the media was removed and attaching cells were treated with trypsin for 2 minutes, cells were then collected, washed with PBS (phosphate buffer saline), spin down, resuspended in 2% heat inactivated FBS with RPMI at a concentration of 1×10^6 cells/ml, and 100 μl was plated in a 96 well plate. Compounds were dissolved in dimethyl sulfoxide (DMSO) and added to the culture medium to achieve desired concentration (e.g. 100, 30, 10, 3, 1, 0.3 or 0.1 μM). Cells were incubated with compounds for 4 hours. Cell free supernatant was collected and the production of IL-1β was evaluated by ELISA. A vehicle only control was run concurrently with each experiment. Final DMSO concentration was 1%.
Measurement of IL-1β Production in PMA-Differentiated THP-1 Cells (Alternative Procedure)
THP-1 cells were purchased from the American Type Culture Collection and sub-cultured according to instructions from the supplier. Prior to experiments, cells were cultured in RPMI 1640 containing 10% heat inactivated FBS, penicillin (100 units/ml), streptomycin (100 μg/ml), HEPES (10 mM) and sodium pyruvate (1 mM) and maintained in log phase prior to experimental setup. Prior to the experiment, THP-1 cells were treated with PMA (Phorbol 12-myristate 13-acetate) (20 μg/ml) overnight. The day of the experiment, the media was removed and attached cells were treated with trypsin for 2 minutes, cells were then collected, washed with PBS (phosphate buffer saline), pelleted by centrifugation and resuspended in 2% heat inactivated FBS with RPMI at a concentration of 50,000 cells/well in a 384 well plate. Cell free supernatant was collected and the production of IL-1β was evaluated by ELISA. Compounds were dissolved in dimethyl sulfoxide (DMSO) and added to the culture medium to achieve desired concentration (e.g. 100, 30, 10, 3, 1, 0.3 or 0.1 μM). Cells were incubated with compounds for 2 hours. A vehicle only control was run concurrently with each experiment. Final DMSO concentration was 1%.
Measurement of IL-1β Production—hTRF Protocol (Second Alternative Procedure)
Serial dilutions of compounds in DMSO were added to low volume 384 well plates at 100 nl/well using an ECHO 550 acoustic dispenser (Labcyte) to achieve final starting concentration of 10 μM in assay.
THP-1 cells in RPMI (Gibco, 11875) media with 10% FBS at a density of 1×10^6 cell/ml in a T175 flask were treated with a final concentration of phorbol 12-myristate 13-acetate (PMA) (Sigma, P1585) of 50 ng/ml overnight at 37° C. at 5% CO2 for differentiation. Cells were harvested the next day after rinsing well with dPBS using 0.5% trypsin. A cell solution was prepared of 1×10^6 cells/ml for 50,000 cells in 50 μl/well in RPMI media with 2% FBS. Cells were plated using a multichannel pipette onto the compound dilutions in Greiner, 384 well, black clear bottom tissue culture treated plates (781090). The plates were incubated in 37° C. incubator at 5% CO2 for 2 hours.
After the 2 hour incubation, the cell plates were spun in the centrifuge for 5 minutes at 1200 rpm. Using the Felix (CyBio), 8 μl of the supernatant was transferred to 384 well, low volume, white proxy plates. (Perkin Elmer, 6008230). A human IL1beta hTRF kit was used to analyze the supernatant (CISBIO, 62HIL1BPEG). The kit instructions were followed for preparing the IL1Beta standard curve and then the antibodies from the kit were diluted 1:40 rather than 1:20 as kit instructed.

T1 sequence (Q96P20 whole entry): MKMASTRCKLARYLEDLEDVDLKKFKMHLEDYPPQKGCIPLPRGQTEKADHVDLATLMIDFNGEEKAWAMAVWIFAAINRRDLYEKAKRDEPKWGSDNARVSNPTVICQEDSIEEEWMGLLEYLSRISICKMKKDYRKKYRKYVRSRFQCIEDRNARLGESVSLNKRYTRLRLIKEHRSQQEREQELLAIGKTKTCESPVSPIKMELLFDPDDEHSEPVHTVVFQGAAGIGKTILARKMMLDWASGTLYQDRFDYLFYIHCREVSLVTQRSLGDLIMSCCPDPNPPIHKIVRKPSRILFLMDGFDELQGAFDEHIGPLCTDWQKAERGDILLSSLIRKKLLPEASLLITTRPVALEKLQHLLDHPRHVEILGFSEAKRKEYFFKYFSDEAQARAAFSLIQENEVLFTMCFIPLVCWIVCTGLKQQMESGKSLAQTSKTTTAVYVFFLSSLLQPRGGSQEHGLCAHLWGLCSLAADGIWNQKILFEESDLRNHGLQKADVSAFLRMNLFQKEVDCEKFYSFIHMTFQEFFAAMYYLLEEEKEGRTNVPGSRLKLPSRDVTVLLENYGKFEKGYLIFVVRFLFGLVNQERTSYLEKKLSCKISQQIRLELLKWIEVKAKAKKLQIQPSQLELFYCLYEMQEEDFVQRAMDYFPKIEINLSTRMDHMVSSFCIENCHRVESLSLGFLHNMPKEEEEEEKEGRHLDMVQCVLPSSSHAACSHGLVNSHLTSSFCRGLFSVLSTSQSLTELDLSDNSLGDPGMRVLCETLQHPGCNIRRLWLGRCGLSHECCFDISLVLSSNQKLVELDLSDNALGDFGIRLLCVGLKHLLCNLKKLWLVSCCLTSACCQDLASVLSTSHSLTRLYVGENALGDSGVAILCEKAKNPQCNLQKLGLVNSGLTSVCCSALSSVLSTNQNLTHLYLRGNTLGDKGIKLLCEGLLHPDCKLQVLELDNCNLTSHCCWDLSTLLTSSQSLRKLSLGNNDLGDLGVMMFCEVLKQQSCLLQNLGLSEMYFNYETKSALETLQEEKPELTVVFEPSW

Regarding `Nc1nc(N[C@H]2CCC[C@@H](O)C2)c2ccc(-c3ccn[nH]3)cc2n1` (single isomer, unassigned) [Example 178, (cis)-3-((2-amino-7-(1H-pyrazol-5-yl)quinazolin-4-yl)amino)cyclohexan-1-ol], the EC50 was found to be 660 nM. In other words, the sub-micromolar range. In turn, `Nc1nc(NCc2ncc[nH]2)c2ccc(-c3ccn[nH]3)cc2n1` [Example 39] returned a concentration giving a half-maximal response (EC50) of 1320 nM.

In turn, `N#C[C@H]1CC[C@H](Nc2nc(N)nc3cc(-c4ccn[nH]4)ccc23)C1` (single isomer, unassigned) [Example 185, (trans)-3-((2-amino-7-(1H-pyrazol-5-yl)quinazolin-4-yl)amino)cyclopentane-1-carbonitrile] returned a half-maximal effective concentration (EC50) of 170 nM. For `CNc1nc(N)nc2cc(-c3ccn[nH]3)ccc12` [Example 84], the midpoint of the response, the EC50, lay at 280 nM. The compound `Nc1nc(NCCCO)c2cc(Cl)c(-c3ccn[nH]3)cc2n1` [Example 3, 3-((2-amino-6-chloro-7-(1H-pyrazol-5-yl)quinazolin-4-yl)amino)propan-1-ol] returned a concentration giving a half-maximal response (EC50) of 6840 nM. Next, `Nc1nc(Nc2cc[nH]n2)c2ccc(-c3ccn[nH]3)cc2n1` [Example 2, N4-(1H-pyrazol-3-yl)-7-(1H-pyrazol-5-yl)quinazoline-2,4-diamine]: 220 nM; `Nc1nc(NCc2cccc3[nH]ncc23)c2ccc(-c3ccn[nH]3)cc2n1` [Example 156]: 440 nM; `Nc1nc(N[C@H]2C[C@@H](O)C2)c2ccc(-c3ccn[nH]3)cc2n1` [Example 158]: 1590 nM. In turn, `Nc1nc(NCc2cncs2)c2ccc(-c3ccn[nH]3)cc2n1` [Example 175] had a concentration for a half-maximal effect (EC50) of 730 nM. This EC50 is about 2.2-fold lower than that of the compound before. Next, `Nc1nc(NCC2(O)CCC2)c2ccc(-c3ccn[nH]3)cc2n1` [Example 38]: 320 nM. Compound `Nc1nc(NCc2ccnnc2)c2ccc(-c3ccn[nH]3)cc2n1` [Example 60] yielded an EC50 of 3490 nM. Then `NC(=O)CC(Nc1nc(N)nc2cc(-c3ccn[nH]3)ccc12)c1cccnc1` (stereo not drawn) [Example 82], with 3650 nM; and `COc1cc(-c2cc[nH]n2)cc2nc(N)nc(NCCc3ccccn3)c12` [Example 134], with 1740 nM; and `Nc1nc(Nc2cn[nH]c2)c2ccc(-c3ccn[nH]3)cc2n1` [Example 112], with 240 nM. Then `Cc1cc(-c2cc[nH]n2)cc2nc(N)nc(NCCCO)c12` [Example 21, 3-((2-amino-5-methyl-7-(1H-pyrazol-3-yl)quinazolin-4-yl)amino)propan-1-ol], with 650 nM.

Take `Nc1nc(NC2CCC2)c2ccc(-c3ccn[nH]3)cc2n1` [Example 177]: the half-maximal effective concentration (EC50) is 160 nM. Next, `Nc1nc(NCCCO)c2c(Cl)cc(-c3cc[nH]n3)cc2n1` [Example 18, 3-((2-amino-5-chloro-7-(1H-pyrazol-3-yl)quinazolin-4-yl)amino)propan-1-ol]: 650 nM; `Nc1nc(NCc2ncccn2)c2ccc(-c3ccn[nH]3)cc2n1` [Example 51]: 320 nM; `Nc1nc(N[C@H]2C[C@H](CO)C2)c2ccc(-c3ccn[nH]3)cc2n1` [Example 176]: 90 nM. `Nc1nc(NCC2CC2(F)F)c2ccc(-c3cc[nH]n3)cc2n1` (single isomer, unassigned) [Example 198, N4-((2,2-Difluorocyclopropyl)methyl)-7-(1H-pyrazol-3-yl)quinazoline-2,4-diamine] yielded a concentration for a half-maximal effect (EC50) of 70 nM. In turn, `CC(C)(O)CNc1nc(N)nc2cc(-c3ccn[nH]3)ccc12` [Example 29] gave an EC50 of 390 nM.

`Nc1nc(NC(CO)c2cccnc2)c2ccc(-c3ccn[nH]3)cc2n1` (stereo not drawn) [Example 62] displayed an EC50 of 1250 nM. Next, `Nc1nc(NCC2CCC(=O)N2)c2ccc(-c3ccn[nH]3)cc2n1` (single isomer, unassigned) [Example 6, 5-(((2-amino-7-(1H-pyrazol-5-yl)quinazolin-4-yl)amino)methyl)pyrrolidin-2-one]: 2110 nM; `Nc1nc(N[C@H]2CC[C@@H](O)C2)c2ccc(-c3ccn[nH]3)cc2n1` [Example 159]: 430 nM; `Nc1nc(NCCc2ccccn2)c2ccc(-c3cc[nH]n3)cc2n1` [Example 119]: 490 nM. Next, `COc1cnnc(CNc2nc(N)nc3cc(-c4ccn[nH]4)ccc23)c1` [Example 188]: 8320 nM; `N#CCCNc1nc(N)nc2cc(-c3ccn[nH]3)ccc12` [Example 58]: 700 nM; `Nc1nc(N[C@H]2CC[C@H](O)C2)c2ccc(-c3ccn[nH]3)cc2n1` [Example 47]: 550 nM. Then `Nc1nc(N[C@H](CO)Cc2c[nH]cn2)c2ccc(-c3ccn[nH]3)cc2n1` [Example 54], with 4010 nM; and `Nc1nc(N[C@H]2C[C@@H](O)C[C@@H]2O)c2ccc(-c3cc[nH]n3)cc2n1` (racemic) [Example 117], with 1560 nM. `C[C@@]1(O)CC[C@@H](Nc2nc(N)nc3cc(-c4ccn[nH]4)ccc23)C1` (racemic) [Example 108] showed an EC50 of 4170 nM. This EC50 is about 2.7-fold higher than that of the compound before.

As to `C[C@]1(O)C[C@@H](Nc2nc(N)nc3cc(-c4ccn[nH]4)ccc23)C1` [Example 191, (cis)-3-((2-amino-7-(1H-pyrazol-5-yl)quinazolin-4-yl)amino)-1-methylcyclobutan-1-ol], a half-maximal effect (EC50) was put at 460 nM. This EC50 is about 9.1-fold lower than that of the compound before. Then `Nc1nc(NCc2cc[nH]n2)c2ccc(-c3ccn[nH]3)cc2n1` [Example 27], with 430 nM; and `Cn1ccnc1C(O)CNc1nc(N)nc2cc(-c3ccn[nH]3)ccc12` (single isomer, unassigned) [Example 149, 2-((2-amino-7-(1H-pyrazol-5-yl)quinazolin-4-yl)amino)-1-(1-methyl-1H-imidazol-2-yl)ethan-1-ol], with 4420 nM; and `CO[C@@H]1C[C@@H](Nc2nc(N)nc3cc(-c4ccn[nH]4)ccc23)C[C@H]1O` (racemic) [Example 141, rac-(1R,2R,4S)-4-((2-amino-7-(1H-pyrazol-5-yl)quinazolin-4-yl)amino)-2-methoxycyclopentan-1-ol], with 3650 nM.

As to `Nc1nc(N[C@H]2CCC[C@@H](O)C2)c2c(F)cc(-c3cc[nH]n3)cc2n1` (racemic) [Example 16, cis-3-((2-amino-5-fluoro-7-(1H-pyrazol-3-yl)quinazolin-4-yl)amino)cyclohexan-1-ol], the concentration giving a half-maximal response (EC50) was 780 nM. Against the preceding compound, the EC50 is about 4.7-fold lower. `Nc1nc(N[C@@H]2CC[C@@H](O)C2)c2ccc(-c3ccn[nH]3)cc2n1` [Example 46] had an EC50 of 210 nM. Compared with the last compound, the EC50 is about 3.7-fold lower. In the case of `Nc1nc(NCCn2cncn2)c2ccc(-c3ccn[nH]3)cc2n1` [Example 31], a half-maximal effect (EC50) was put at 800 nM.

`Nc1nc(NCC2(CN3CCCC3)CC2)c2ccc(-c3cc[nH]n3)cc2n1` [Example 194] yielded an EC50 of 210 nM. Regarding `COC(CO)CNc1nc(N)nc2cc(-c3ccn[nH]3)ccc12` (single isomer, unassigned) [Example 202, 3-((2-amino-7-(1H-pyrazol-5-yl)quinazolin-4-yl)amino)-2-methoxypropan-1-ol], the concentration giving a half-maximal response (EC50) was determined as 880 nM. Then `Nc1nc(NC2C[C@@H](O)[C@H](O)C2)c2ccc(-c3ccn[nH]3)cc2n1` (racemic) [Example 109], with 1950 nM; and `Nc1nc(NCc2ccncn2)c2ccc(-c3ccn[nH]3)cc2n1` [Example 50], with 1870 nM; and `Cc1cccc2nc(CNc3nc(N)nc4cc(-c5ccn[nH]5)ccc34)cn12` [Example 161], with 2000 nM. Next, `COc1cc(-c2cc[nH]n2)cc2nc(N)nc(NCCO)c12` [Example 131]: 5610 nM; `COc1cc(-c2cc[nH]n2)cc2nc(N)nc(NCc3cncnc3)c12` [Example 135]: 1440 nM.
